Reference: PubChem BioAssay (NCI)
Values joined by “and” are separate entries in the source; they are usually repeats but may differ in a detail not shown here. Equal entries are not always repeated.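 Step 1: Grow cells in 96-well plates. Step 2: Expose to compound for 48 hours at 5 concentrations. Step 3: Interpolate endpoints linearly; if unreached, use highest concentration. GI50 is the concentration that inhibits growth by half. The concentration for full growth arrest is given as TGI.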

Key:
Test in all cases: inhibition of tumour cell growth, NCI panel, 48 h
A549 NSCLC = tested on: A549 NSCLC
UACC-257 melanoma = tested on: UACC-257 melanoma
OVCAR-5 ovarian = tested on: OVCAR-5 ovarian
HT29 colon = tested on: HT29 colon
UACC-62 melanoma = tested on: UACC-62 melanoma
MDA-MB-231 breast = tested on: MDA-MB-231 breast
NCI-H460 lung = tested on: NCI-H460 lung
CCRF-CEM leukemia = tested on: CCRF-CEM leukemia
NCI/ADR-RES ovarian = tested on: NCI/ADR-RES ovarian
HS 578T breast = tested on: HS 578T breast
ACHN renal = tested on: ACHN renal

Compound	TGI (A549 NSCLC)	GI50 (UACC-257 melanoma) [µM]	TGI (UACC-257 melanoma) [µM]	GI50 (OVCAR-5 ovarian) [µM]	TGI (OVCAR-5 ovarian)	TGI (HT29 colon) [µM]	GI50 (UACC-62 melanoma) [µM]	TGI (UACC-62 melanoma)	GI50 (MDA-MB-231 breast) [µM]	TGI (NCI-H460 lung)	GI50 (CCRF-CEM leukemia)	TGI (CCRF-CEM leukemia)	GI50 (NCI/ADR-RES ovarian)	TGI (NCI/ADR-RES ovarian)	GI50 (HS 578T breast)	TGI (MDA-MB-231 breast) [µM]	TGI (HS 578T breast) [µM]	TGI (ACHN renal) [µM]	GI50 (NCI-H460 lung) [µM]
COc1ccc2nc3cccc([N+](=O)[O-])c3c(NCCCO)c2c1	0.0223 µM and 0.102 µM	0.00379	0.0166	0.00181	0.0177 µM and 0.0148 µM	0.00183	0.00294	0.0151 µM and 0.0185 µM	2.26	0.00233 µM and 0.0153 µM	0.00583 µM and 0.0153 µM	0.0572 µM and 0.133 µM	0.00616 µM and 0.0229 µM	0.0276 µM and 0.248 µM	0.00445 µM and 0.033 µM				
CCOC1CC(C)N(C(=O)c2ccccc2)O1 (configuration not stated)	> 100 µM				> 100 µM	> 100		> 100 µM		> 100 µM		> 100 µM		> 100 µM		> 100	> 100	> 100	
c1ccc(CSC2(SCc3ccccc3)CCCCC2)cc1	> 10 µM		> 10			> 10		> 10 µM		> 10 µM		> 10 µM		> 10 µM		> 10	> 10	> 10	
CCN(CC)c1oc(N(CC)CC)c(C(=O)Nc2ccccn2)c(=O)c1C(C)=O	> 100 µM				> 100 µM	> 100		> 100 µM		> 100 µM		> 100 µM						> 100	
COc1ccc2nc3cc(Cl)ccc3c(SCC(=O)Nc3ccccc3-c3ccccc3NC(=O)CSc3c4ccc(Cl)cc4nc4ccc(OC)cc34)c2c1	> 100 µM		> 100		> 100 µM	> 100		> 100 µM		> 100 µM		> 100 µM						> 100	
CCOc1cc2c(c(OCC)c1O)CC[C@@H]1[C@@H]2CC[C@]2(C)[C@@H](O)CC[C@@H]12	> 100 µM				> 100 µM	24.7		27.5 µM				> 100 µM		46 µM		24.3	95.1	57.4	
CCOC(=O)c1nc2ccc(C(F)(F)F)cc2nc1Oc1ccc(C(=O)OC)cc1			> 100			> 100		> 100 µM		> 100 µM		> 100 µM		> 100 µM		> 100	> 100	> 100	
CCOc1ccc(NC(=O)C(=O)C(C(=O)c2ccc3ccccc3c2)C2OC(=O)c3ccccc32)cc1 (configuration not stated)	> 100 µM		81.9		84.9 µM	> 100		27.2 µM		> 100 µM		57.7 µM						> 100	
Cc1ccc(N(C)S(=O)(=O)c2ccccc2[N+](=O)[O-])cc1	> 100 µM		> 100		> 100 µM	> 100				> 100 µM				> 100 µM		> 100		> 100	
Cc1cnc2[nH]c(-c3ccc4ccccc4c3)cc(=O)c2c1	> 100 µM				> 100 µM	> 100		> 100 µM		> 100 µM							> 100	> 100	0.394
NC(=O)NC12CC3CC(CC(F)(C3)C1)C2	> 100 µM		> 100		> 100 µM	> 100		> 100 µM		> 100 µM		> 100 µM						> 100	
N#Cc1c(-c2ccccc2)c(CN2CCCCC2)c(=O)n2c1[nH]c1ccccc12	> 100 µM		> 100		> 100 µM					> 100 µM		> 100 µM		> 100 µM		> 100		> 100	
O=c1oc2c(Cl)cc(Cl)cc2cc1C1=CSC2=NCCN12	> 100 µM		> 100		> 100 µM	> 100		> 100 µM		> 100 µM		> 100 µM		> 100 µM		> 100		> 100	
CC(Oc1ccc(OCC2CCCCC2)cc1)C(=O)NCc1ccco1 (configuration not stated)	> 100 µM		70.4			46.6		> 100 µM		> 100 µM		> 100 µM						> 100	
CC(=O)OC(C)(C)CCC(=O)[C@](C)(O)[C@H]1[C@H](O)C[C@@]2(C)[C@@H]3CCc4c(cc(OC5OC(CO)C(O)C(O)C5O)c(O)c4C)C3(C)C(=O)C[C@]12C (some centres not stated)	> 100 µM		> 100		> 100 µM	> 100		> 100 µM		> 100 µM		> 100 µM		> 100 µM		> 100		> 100	
CC[C@@]1(O)C(=O)OCc2c1cc1n(c2=O)Cc2c-1nc1ccccc1c2/C=N/NC(=O)c1ccc(N)cc1	> 100 µM		> 100		> 100 µM	> 100		1.94 µM		15.2 µM				> 37.8 µM		> 100	> 100		
COc1cccc(/C=C2\S/C(=N/Nc3nc(-c4ccc([N+](=O)[O-])cc4)cs3)NC2=O)c1O	39.6 µM		71.2		54.7 µM	52.6				42 µM		63.3 µM		53.3 µM		41.7	74.1	32.3	
Cc1cc(S(=O)(=O)/N=C(\[N-]S(=O)(=O)c2cc(Cl)sc2Cl)[n+]2ccc(N(C)C)cc2)c(S)cc1Cl			> 100		> 100 µM	> 100				> 100 µM		> 100 µM		> 100 µM		> 100	> 100	> 100	
COc1ccc(/C=C2\C[C@H]3[C@@H]4CCC5=CC(=O)CC[C@]5(C)[C@H]4CC[C@]3(C)C2=O)cc1OC	> 100 µM		68.4		> 100 µM	> 100		> 100 µM		> 100 µM		47.2 µM		> 100 µM			> 100	> 100	
Cc1ccc(C(=O)N/N=C(\N=Nc2ccc(C(=O)O)cc2)c2ccc(N(CCC#N)CCC#N)cc2C)cc1	> 100 µM		> 100		> 100 µM	> 100				> 100 µM		> 100 µM		> 100 µM		> 100		> 100	
Nc1nc(-c2ccco2)cc(-c2ccc(CO)o2)n1	> 100 µM				> 100 µM	> 100		> 100 µM		> 100 µM		> 100 µM						> 100	
COc1cccc(NC(=O)CC(=O)N2N=C(n3ccc4ccccc43)CC2c2ccccc2)c1 (configuration not stated)	> 100 µM		> 100		> 100 µM	> 100		> 100 µM		> 100 µM		> 100 µM						> 100	
